The record followed here is patent US9945845B2, “Methods of screening using amphibians” (priority 2009, dated 2018).

“Also recorded” adds a separate entry of the source. Where two headings read alike, the source gives them in different places.

The test system of assay [1] is HUVEC. Description: HUVEC tube formation assay. To be noted: Homo sapiens, HUVEC, 1 μM in 0.1% DMSO. Format: cell-based, human. The method, boiled down: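 HUVEC and LEC in EBM with 20% FBS, hydrocortisone and dibutyryl-cAMP, up to eleven passages, treated overnight at 37 °C with compound at 1 μM in 0.1% DMSO, then fixed in 4% paraformaldehyde. Read-out: total tube length (μm) per area over three hotspot images per well, triplicate wells.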

In assay [2] the test system is VEGFA-induced dermal neovascularization. Briefly: Matrigel plug implantation assay (VEGFA-induced angiogenesis and lymphatic vessel enlargement). Format: in vivo, mouse. To be noted: mice, 3 mg/kg/day orally, 6 days. The method, then: The mouse studies were conducted under protocols approved by the Veterinary Office of the Canton of Zurich, Switzerland (permit #123/2005). Nine week-old female wild-type FVB mice (Charles River) were used for the experiments (n=6 per group). Prior to Matrigel implantation, the mice were anesthetized by intraperitoneal injection of 200 μl of Dormitor (20 μg/ml medetomidine; Pfizer) and Narketan 10 (8 mg/ml ketamine; Vétoquinol). The left hip of the animals were shaved and subsequently Matrigel was implanted by intradermal injection of 100 μl of unpolymerized growth factor-reduced Matrigel (BD Biosciences) containing 0.5 mg/ml recombinant human VEGFA (#0081109; National Cancer Institute, USA). The mice were treated orally with either 200 μl PEG-400 (Fluka; pH adjusted to 5.2; control group) or with 200 μl PEG-400 containing […] naphthyridine (3 mg/kg/day). Another control group of mice received Matrigel without VEGFA and was treated with 200 μl PEG-400. The treatment was given once daily for six days. Weight and appearance of animals was monitored daily. On the 7th day, the Matrigel implants were removed from the euthanized mice for immunocytochemical examination. The Matrigel implants were frozen in Tissue-Tek O.C.T. compound (Sakura Finetek), sectioned, and processed as described previously (Kajiya et al., 2005). In brief, 6-μm frozen sections were fixed in −20° C. acetone for two minutes and in cold 80% methanol for five minutes, followed by incubation with antibodies against the lymphatic-specific marker LYVE1 (1:1,000; Millipore) and against the pan-endothelial marker […] (anti-mouse; 1:50; BD Biosciences). Corresponding secondary antibodies were labeled with Alexa 488 or Alexa 594 (Invitrogen). Nuclei were counterstained with 20 μg/ml Hoechst 33342 (Invitrogen). Sections were examined under an Axioskop 2 mot plus microscope and digital images were taken using an AxioCam MRc camera (Carl Zeiss). Three pictures each were taken of vascularized areas around the Matrigel implants (maximal distance from the implant: 500 μm). The vessel density, average vessel size and the average tissue area occupied by vessels were determined in CD31/LYVE1 stained sections using the IPLab software (BD Biosciences) as described (Kajiya et al., 2005).
The adenosine A1 receptor antagonist naphthyridine was identified as a novel inhibitor of lymphatic and blood vessel formation in Xenopus tadpoles and in vitro cellular assays, where it acted anti-mitogenic and impaired endothelial tube formation. […] It can be concluded that the ability of naphthyridine to inhibit lymph and blood vessel angiogenesis is conserved between Xenopus and mammals.

Assay [3] relates to blood vessel development and/or lymphangiogenesis in Xenopus embryos. The class given is in vivo, Xenopus laevis. The method, boiled down: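 Albino Xenopus embryos treated at 20 μM final (from 10-mM DMSO stocks) in screening medium, 7 per well, from stage 31 (37 hpf) to stage 35/36 (50 hpf) or 42 (80 hpf). Fixed in 4% paraformaldehyde and scored by whole-mount in situ hybridization: vasculogenesis and intersomitic vein angiogenesis at stage 35/36, lymph vessel development at stage 42.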

The next assay deals with LEC. Description: LEC cell proliferation assay. Format: cell-based, human. To be noted: Homo sapiens, 48 h, 10 μM in 0.1% DMSO, 48 hours; read-out: LEC proliferation. The method, boiled down:
(§1)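 HUVEC and LEC in EBM with 20% FBS, hydrocortisone and dibutyryl-cAMP were treated with compound at 10 μM in 0.1% DMSO for 48 hours. Viable cells read by fluorescence, in five replicates.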

The test system of assay [4] is HUVEC. Description: HUVEC cell proliferation assay. Particulars: Homo sapiens, HUVEC, 48 h, 10 μM in 0.1% DMSO, 48 hours; read-out: HUVEC proliferation. The class given is cell-based, human. The method in brief:
as §1

`Oc1cc(-c2ccccc2)nc2nc(Cl)ccc12` [7-Chloro-4-hydroxy-2-phenyl-1,8-naphthyridine]: in the assay on HUVEC [1] (overnight, read-out: HUVEC tube formation), the activity at 1 µM was in the range of 50 to 85%. In the assay with HUVEC [1] (read-out: HUVEC tube formation (tube length)), the activity at 1 µM lay in the range of 50 to 85%. Further, in assay [2], the “density of lymphatic vessels” value is listed as “unchanged”, the “number of VEGFA-induced blood vessels” value stood at 36.49±1.49 and the “tissue area covered by lymphatic vessels surrounding VEGFA containing Matrigels” value is 0.89±0.18%. Further, in assay [2] (3 mg/kg/day), the lymphatic vessel enlargement result is “potently inhibited; also recorded: reduction” and the “tissue area covered by blood vessels” value is given as “reduction; also recorded: reduced”. In addition, the “blood vessel development phenotype (apj expression, in words)” value in assay [3] (20 μM from stage 31, fixed at stage 35/36) is on record as “interfered not only with ISV angiogenesis but also with VVN assembly”. Also, in assay [3] (20 μM from stage 31, fixed at stage 42), the “lymph vessel development phenotype (vegfr3 expression, in words)” value is “stunted, disorganized lymphatic vessels arising from the ALS and ALH”. Further, the ALH phenotype result in assay [3] (anterior lymph heart, Xenopus embryos) is “dysplastic”. Further, the ALS phenotype result in assay [3] (anterior lymph sac, Xenopus embryos) is listed as “stunted”. Also, the ISV phenotype entry in assay [3] (intersomitic vessels, Xenopus embryos) is reported as “stunted”. Further, in assay [3] (posterior cardinal vein, Xenopus embryos), the PCV phenotype entry is on record as “normal”. The PLV phenotype result in assay [3] (posterior lymph vessels, Xenopus embryos) is given as “hypoplastic”. Further, the VVN phenotype entry in assay [3] (vitelline vein network, Xenopus embryos) was “hypoplastic”. In addition, in the assay with LEC, the activity at 10 µM is 42 to 48%. For the same compound, in the assay with HUVEC [4], the activity at 10 µM lay within 42 to 48%.
